Reference: patent US20040224958A1, “Pyridopyrimidinone derivatives for treatment of neurodegenerative disease” (priority 2000, published 2004)
Where two headings read alike, the source gives them in different places.

What was measured:
cdk4/D = cdk4/D (Homo sapiens, UniProt P11802); assay: Cyclin-Dependent Kinase 4 (cdk4) Assay; assay type: biochemical; settings: read-out: cdk4/D IC50
Cdk5/p25 = Cdk5/p25 (Homo sapiens, UniProt Q00535); assay: Cyclin-Dependent Kinase 5 High Throughput Screening (cdk5-HTS) Assay; assay type: biochemical; settings: high throughput screen
Outline: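 Cdk5/p25 (1.0 μg/mL) phosphorylates GST-RbCOOH (20 μg/mL) in 50 mM Tris pH 7.4 with 10 mM MgCl2 and 20 μM ATP spiked with [γ33P]ATP, 30 min at room temperature. After EDTA stop, substrate captured on glutathione-coated plates; 33P incorporation counted by scintillation; IC50 determined.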

cdk2/cyclinE = cdk2/cyclinE (Homo sapiens, UniProt P24941); assay: Cyclin-Dependent Kinase Assay cdk2/cyclinE
cdk2/cyclinA = cdk2/cyclinA (Homo sapiens, UniProt P24941); assay: Cyclin-Dependent Kinase Assay cdk2/cyclinA
cdc2/cyclinB = cdc2/cyclinB (Homo sapiens, UniProt P06493); assay: Cyclin-Dependent Kinase Assay cdc2/cyclinB
Chain of cdc2/cyclinB (P06493 whole entry): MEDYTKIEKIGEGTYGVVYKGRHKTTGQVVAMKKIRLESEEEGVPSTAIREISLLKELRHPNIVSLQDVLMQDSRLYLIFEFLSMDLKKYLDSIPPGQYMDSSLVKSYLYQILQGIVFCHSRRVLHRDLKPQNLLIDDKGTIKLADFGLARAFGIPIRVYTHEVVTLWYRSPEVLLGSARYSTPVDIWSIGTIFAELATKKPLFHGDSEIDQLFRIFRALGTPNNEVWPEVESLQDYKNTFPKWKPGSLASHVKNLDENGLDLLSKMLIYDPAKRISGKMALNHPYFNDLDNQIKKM
Chain of cdc2/cyclinB (P14635 whole entry, further chain): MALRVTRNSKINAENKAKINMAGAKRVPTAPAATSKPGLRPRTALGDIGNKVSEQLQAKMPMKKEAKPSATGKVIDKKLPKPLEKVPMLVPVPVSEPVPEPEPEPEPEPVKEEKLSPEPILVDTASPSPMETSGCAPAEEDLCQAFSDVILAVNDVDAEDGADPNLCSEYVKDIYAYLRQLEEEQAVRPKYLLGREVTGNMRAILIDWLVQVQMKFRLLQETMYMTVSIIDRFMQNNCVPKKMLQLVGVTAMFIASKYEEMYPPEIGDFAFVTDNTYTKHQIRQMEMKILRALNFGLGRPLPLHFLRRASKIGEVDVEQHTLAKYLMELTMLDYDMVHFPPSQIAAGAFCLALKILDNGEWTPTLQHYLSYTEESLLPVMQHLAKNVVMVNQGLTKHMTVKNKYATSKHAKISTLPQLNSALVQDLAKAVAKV

Chain of cdk4/D (P11802 whole entry): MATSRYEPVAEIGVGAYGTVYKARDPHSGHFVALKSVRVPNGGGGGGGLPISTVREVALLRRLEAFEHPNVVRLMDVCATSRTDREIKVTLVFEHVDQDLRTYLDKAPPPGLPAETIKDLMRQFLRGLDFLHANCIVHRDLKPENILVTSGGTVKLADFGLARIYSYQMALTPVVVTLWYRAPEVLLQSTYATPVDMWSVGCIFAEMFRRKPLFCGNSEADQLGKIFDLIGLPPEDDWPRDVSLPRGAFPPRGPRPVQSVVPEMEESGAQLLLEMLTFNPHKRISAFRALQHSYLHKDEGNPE
Chain of cdk4/D (P24385 whole entry, further chain): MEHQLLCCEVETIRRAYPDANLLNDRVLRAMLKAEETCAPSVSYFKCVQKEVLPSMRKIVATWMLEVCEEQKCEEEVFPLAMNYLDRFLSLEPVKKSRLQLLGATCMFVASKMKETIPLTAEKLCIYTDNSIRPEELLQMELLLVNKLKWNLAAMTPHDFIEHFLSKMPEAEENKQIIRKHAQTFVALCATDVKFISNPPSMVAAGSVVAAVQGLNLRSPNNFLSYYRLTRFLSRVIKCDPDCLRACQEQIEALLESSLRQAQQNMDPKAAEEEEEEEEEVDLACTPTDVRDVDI

IC50 (cdk4/D) [nM] | IC50 (Cdk5/p25) [nM] | IC50 (cdk2/cyclinE; cdk2/E IC50) [nM] | IC50 (cdk2/cyclinA; cdk2/A IC50) [nM] | IC50 (cdc2/cyclinB) [nM] | Structure (SMILES) | IC50 (cdk2/cyclinE; read-out: cdk2/E IC50) [nM] | IC50 (cdk2/cyclinA; read-out: cdk2/A IC50) [nM] | IC50 (cdc2/cyclinB; read-out: cdk1/B IC50) [nM]
58 | 21 | 130 | 210 | 310 | CC(C)n1c(=O)ccc2cnc(Nc3ccc(F)c(F)c3)nc21 [Example 426, 2-(3,4-Difluoro-phenylamino)-8-isopropyl-8H-pyrido[2,3-d]pyrimidin-7-one] |  |  | 
2400 | 74 | 120 | 1700 | 320 | CCCn1c(=O)ccc2cnc(Nc3ccc(OC)c(O)c3)nc21 [Example 336, 2-(3-Hydroxy-4-methoxy-phenylamino)-8-propyl-8H-pyrido[2,3-d]pyrimidin-7-one] |  |  | 
87 | 86.5 | 103 | 320 | 156 | O=c1ccc2cnc(Nc3ccc4[nH]ccc4c3)nc2n1CC1CC1 [Example 563, 8-Cyclopropylmethyl-2-(1H-indol-5-ylamino)-8H-pyrido[2,3-d]pyrimidin-7-one] |  |  | 
1140 | 917 | 1280 | 610 | 808 | CCCCn1c(=O)ccc2cnc(Nc3ccc(N(C)C(C)=O)cc3)nc21 [Example 370, N-[4-(8-Butyl-7-oxo-7,8-dihydro-pyrido[2,3-d]pyrimidin-2-ylamino)-phenyl]-N-methyl-acetamide] |  |  | 
19 | 9 | 40 | 16 | 30 | O=C1CSc2ccc(Nc3ncc4ccc(=O)n(C5CCCC5)c4n3)cc2N1 [Example 556, 8-Cyclopentyl-2-(3-oxo-3,4-dihydro-2H-1,4-benzothiazin-6-ylamino)-8H-pyrido[2,3-d]pyrimidin-7-one] |  |  | 
1900 | 280 | 300 | 650 | 610 | CCCCn1c(=O)ccc2cnc(Nc3cc(F)cc(F)c3)nc21 [Example 404, 8-Butyl-2-(3,5-difluoro-phenylamino)-8H-pyrido[2,3-d]pyrimidin-7-one] |  |  | 
140 | 120 | 320 | 830 | 600 | CCn1c(=O)ccc2cnc(Nc3ccc(F)c(F)c3)nc21 [Example 301, 2-(3,4-Difluoro-phenylamino)-8-ethyl-8H-pyrido[2,3-d]pyrimidin-7-one] |  |  | 
710 | 200 | 61.7 | 170 | 310 | O=c1ccc2cnc(Nc3cc(Cl)c(O)c(Cl)c3)nc2n1C1CCCC1 [Example 540, 8-Cyclopentyl-2-(3,5-dichloro-4-hydroxy-phenylamino)-8H-pyrido[2,3-d]pyrimidin-7-one] |  |  | 
692 | 76.8 | 210 | 728 | 177 | CCC(CC)n1c(=O)ccc2cnc(Nc3cccc(C(F)(F)F)c3)nc21 [Example 487, 8-(1-Ethyl-propyl)-2-(3-trifluoromethyl-phenylamino)-8H-pyrido[2,3-d]pyrimidin-7-one] |  |  | 
637 | 228 | 300 | 554 | 597 | CCCn1c(=O)ccc2cnc(Nc3ccc(C#N)cc3)nc21 [Example 322, 4-(7-Oxo-8-propyl-7,8-dihydro-pyrido[2,3-d]pyrimidin-2-ylamino)-benzonitrile] |  |  | 
66 | 9.7 | 170 | 170 | 160 | COc1ccc(Nc2ncc3ccc(=O)n(C(C)C)c3n2)cc1F [Example 422, 2-(3-Fluoro-4-methoxy-phenylamino)-8-isopropyl-8H-pyrido[2,3-d]pyrimidin-7-one] |  |  | 
2940 | 379 | 668 | 2880 | 949 | CCCCn1c(=O)ccc2cnc(Nc3ccc(Br)c(C(F)(F)F)c3)nc21 [Example 374, 2-(4-Bromo-3-trifluoromethyl-phenylamino)-8-butyl-8H-pyrido[2,3-d]pyrimidin-7-one] |  |  | 
96 | 8 | 97 | 270 | 190 | CCC(C)n1c(=O)ccc2cnc(Nc3ccc(C)c(Cl)c3)nc21 (centres unmarked) [Example 467, 8-sec-Butyl-2-(3-chloro-4-methyl-phenylamino)-8H-pyrido[2,3-d]pyrimidin-7-one] |  |  | 
310 | 110 | 100 | 690 | 200 | CCCCn1c(=O)ccc2cnc(Nc3ccc(Cl)c(C)c3)nc21 [Example 388, 8-Butyl-2-(4-chloro-3-methyl-phenylamino)-8H-pyrido[2,3-d]pyrimidin-7-one] |  |  | 
3640 | 648 | 1110 | 3160 | 1240 | CCCn1c(=O)ccc2cnc(Nc3ccc(F)cc3F)nc21 [Example 321, 2-(2,4-Difluoro-phenylamino)-8-propyl-8H-pyrido[2,3-d]pyrimidin-7-one] |  |  | 
30 | 9.6 | 46 | 240 | 90 | CCC(C)n1c(=O)ccc2cnc(Nc3cccc(S(N)(=O)=O)c3)nc21 (centres unmarked) [Example 469, 3-(8-sec-Butyl-7-oxo-7,8-dihydro-pyrido[2,3-d]pyrimidin-2-ylamino)-benzenesulfonamide] |  |  | 
310 | 29 | 260 | 450 | 61 | CCCn1c(=O)ccc2cnc(Nc3cc(C)cc(C)c3)nc21 [Example 346, 2-(3,5-Dimethyl-phenylamino)-8-propyl-8H-pyrido[2,3-d]pyrimidin-7-one] |  |  | 
200 | 230 | 71 | 310 | 430 | Cc1ccc(Nc2ncc3ccc(=O)n(CC4CC4)c3n2)cc1NS(C)(=O)=O [Example 592, N-[5-(8-Cyclopropylmethyl-7-oxo-7,8-dihydro-pyrido[2,3-d]pyrimidin-2-ylamino)-2-methyl-phenyl]-methanesulfonamide] |  |  | 
1550 | 106 | 161 | 855 | 159 | CCCn1c(=O)ccc2cnc(Nc3cc(Cl)cc(Cl)c3)nc21 [Example 319, 2-(3,5-Dichloro-phenylamino)-8-propyl-8H-pyrido[2,3-d]pyrimidin-7-one] |  |  | 
128 | 7.8 | 17.3 | 41 | 77.5 | CCC(C)n1c(=O)ccc2cnc(Nc3ccc4[nH]nnc4c3)nc21 (centres unmarked) [Example 449, 2-(1H-Benzotriazol-5-ylamino)-8-sec-butyl-8H-pyrido[2,3-d]pyrimidin-7-one] |  |  | 
270 | 120 | 210 | 310 | 180 | CCC(CC)n1c(=O)ccc2cnc(Nc3cc(F)cc(F)c3)nc21 [Example 510, 2-(3,5-Difluoro-phenylamino)-8-(1-ethyl-propyl)-8H-pyrido[2,3-d]pyrimidin-7-one] |  |  | 

Structure (SMILES) | IC50 (cdk4/D) [nM] | IC50 (Cdk5/p25) [nM] | IC50 (cdk2/cyclinE; cdk2/E IC50) [nM] | IC50 (cdk2/cyclinA; cdk2/A IC50) [nM] | IC50 (cdc2/cyclinB) [nM] | IC50 (cdk2/cyclinE; read-out: cdk2/E IC50) [nM] | IC50 (cdk2/cyclinA; read-out: cdk2/A IC50) [nM] | IC50 (cdc2/cyclinB; read-out: cdk1/B IC50) [nM]
CCCCn1c(=O)ccc2cnc(Nc3ccc(C(N)=O)cc3)nc21 [Example 371, 4-(S-Butyl-7-oxo-7,8-dihydro-pyrido[2,3-d]pyrimidin-2-ylamino)-benzamide] | 331 | 234 |  |  |  | 286 | 699 | 372
